Data on 5 compounds can be found in patent US12023319B2, “Carboxylic acid aromatic amides” (priority 2016, dated 2024).

Data set [1] concerns Male Sprague Dawley rats. As to the kind of experiment: Rat CFA in vivo model (mechanical hyperalgesia, paw withdrawal threshold). The conditions noted are these: for Paw withdrawal threshold 2 hours post-compound: 2 hours post-compound (Table 5). The procedure: Male Sprague Dawley rats were used. Mechanical hyperalgesia was induced by injecting 25 μL of Complete Freund's Adjuvant (CFA) into the plantar surface of one hind paw. Mechanical hyperalgesia was measured using the Pressure Application Measurement apparatus (Ugo Basile, Gemonio, Italy). Briefly, a linearly increasing pressure was applied to an area of ˜50 mm^2 of the plantar side of the hind paw until a behavioural response (paw withdrawal) was observed or until the pressure reached 1000 gf. The pressure at which the behavioural response occurred was recorded as the “Paw Withdrawal Threshold” (PWT). Both CFA-injected and contralateral PWTs were determined for each rat, in each treatment group and at each time point of the studies. The Compound Examples were administered orally in a vehicle of dimethylsulfoxide (DMSO), Polyethylenglycol (PEG) and 2-hydroxypropyl-beta-cyclodextrin (HPCD) (v/v/v=3:20:77). Rats received a first dose of […] of Compound Example per kg body weight 1 hour before CFA injection and a second dose 24 hours after the CFA injection. Mechanical hyperalgesia testing was performed approximately 2 hours before CFA injection, then 2 and 4 hours after the second dose of Compound Example (i.e. 26 and 28 hours after CFA treatment). Data were expressed as the mean±S.D. Area Under the Curve (AUC) of PWTs (defined in table 3 as “AUC of Paw withdrawal threshold (AUC 0-4 hours) post-vehicle” with respect to vehicle group or “AUC of Paw withdrawal threshold (AUC 0-4 hours) post-drug” with respect to Compound Example). Data were analysed by performing a one-way ANOVA followed by a Dunnett's post hoc test. For p values less than 0.05 the results were deemed to be statistically significant.

Data set [2] concerns the target T1, native human Bradykinin B1 receptor (Homo sapiens, UniProt P46663).
T1 construct: which express native human Bradykinin B1 receptor after induction with human IL-1beta; Coriell Institute; host or cells: IMR-90 human foetal lung fibroblasts, induced with human IL-1beta
T1 sequence (P46663 1-353): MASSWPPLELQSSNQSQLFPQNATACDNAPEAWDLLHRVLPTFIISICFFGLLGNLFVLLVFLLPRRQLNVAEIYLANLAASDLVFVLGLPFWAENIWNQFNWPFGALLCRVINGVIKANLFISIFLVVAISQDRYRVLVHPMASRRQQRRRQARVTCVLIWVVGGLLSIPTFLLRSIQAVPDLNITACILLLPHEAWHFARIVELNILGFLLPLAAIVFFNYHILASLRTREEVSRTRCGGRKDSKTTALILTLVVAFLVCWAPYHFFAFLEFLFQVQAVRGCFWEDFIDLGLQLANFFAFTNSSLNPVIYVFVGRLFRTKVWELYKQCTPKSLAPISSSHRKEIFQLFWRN
As to the kind of experiment: Calcium flux assay (FLIPR) with IMR-90 human fibroblasts expressing Bradykinin B1 receptor after IL-1beta induction (hB1 IMR-90). In kind it is cell-based. The conditions noted are these: IMR-90 human fibroblasts after IL-1beta induction, read-out: hB1 IMR90 IC50. On the procedure:
Calcium Flux Assay (FLIPR) with Human Fibroblasts Expressing Bradykinin B1 Receptor (hB1 IMR-90)
The Calcium flux Assay was carried out utilising IMR-90 human foetal lung fibroblasts (American Type Culture Collection, Rockville, MD; and Coriell Institute, Camden, New Jersey), which express native human Bradykinin B1 receptor after induction with human IL-1beta.
The fibroblasts were cultured in complete growth media comprised of Dulbecco's modified Eagle's medium (DMEM; Sigma) containing 10% foetal bovine serum, 4 mM L-glutamine, and 1% nonessential amino acids. The cells were maintained in a humidified atmosphere with 5% CO2 at 37° C. and were sub-cultured at a ratio of 1:3, every other day.
For the assay, IMR-90 fibroblasts were harvested using TrypLE Express (GIBCO/Invitrogen) and seeded into 384-well plates (Corning Cellbinding Surface, Cat. 3683) at a density of 15000 cells/well. The following day, cells were treated with 0.35 ng/mL human IL-1beta in 10% FBS/MEM for 3 h to up-regulate Bradykinin B1 receptor. Induced cells were loaded with fluorescent calcium indicator by incubation with 2.5 μM Fluo-4/AM (Invitrogen) at 37° C., 5% CO2 for 2 h in the presence of 2.5 mM probenecid in 1% FBS/MEM. […] Compound examples were assayed at 8 concentrations in triplicate. […] A peptide antagonist Lys-(Des-Arg-Leu)-Bradykinin (Bachem, Brackley) at 20 µM was used to determine the full inhibition as control. IC50 values were determined by the same way described for the FLI PR assay with recombinant cells.

Data set [3] deals with T2, human Bradykinin B1 receptor (Homo sapiens, UniProt P46663).
T2 construct: host or cells: CHO-K1
T2 sequence (P46663 1-353): T1 sequence (P46663 1-353)
Put plainly: Calcium flux assay (FLIPR), CHO-K1 cells expressing human Bradykinin B1 receptor, absence of 0.1% BSA (hB1 free IC50). In kind it is cell-based. The conditions noted are these: absence of 0.1% BSA in assay buffer. The method in brief:
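Peak FLIPR fluorescence (538 nm) after B1 agonist peptide addition gave IC50s, scaled between DMSO and full block by 20 µM Lys-(Des-Arg-Leu)-Bradykinin. Compounds were preincubated 30 min at 28° C with calcium-dye-loaded CHO-K1 cells expressing human B1, at 8 concentrations in triplicate, 1% DMSO final.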

The target of data set [4] is T3, human B1R (Homo sapiens, UniProt P46663).
T3 construct: host or cells: CHO cells
T3 sequence (P46663 1-353): T1 sequence (P46663 1-353)
The following applies: human B1R-expressing CHO cells; cited from earlier work.

The conditions of data set [5]: cited from earlier work.
The conditions of data set [6]: cited from earlier work. This is another data set of the same source.
For data set [7] the following is noted: cited from earlier work. The source holds these as a separate data set.
For data set [8] the following is noted: due to metabolic lability; cited from earlier work.

In the case of `CC(C)n1cc(-c2ccc(NC(=O)C3(c4ccc(OC(F)(F)F)cc4F)CC3)cc2C(=O)O)cn1` [Example 71, 5-[({1-[2-Fluoro-4-(trifluoromethoxy)phenyl]cyclopropyl}carbonyl)amino]-2-[1-(propan-2-yl)-1H-pyrazol-4-yl]benzoic acid], the “Paw withdrawal threshold 2 hours post-compound” value in data set [1] (0.75 mg/kg p.o.) is recorded as 591 ± 20 gf (ns); in data set [1] (3 mg/kg p.o.), 628 ± 17 gf (ns); in data set [1] (10 mg/kg p.o.), 742 ± 49 gf (****). In addition, the 50% inhibitory concentration (IC50) in data set [2] is 28 nM; in data set [3] it was 47 nM.

For the compound `COC(=O)c1c(Cl)cccc1N1CCC(CNC(=O)C2(NC(=O)C(F)(F)F)CC2)CC1`, the binding affinity entry in data set [4] is reported as “highest”.

For the compound `C[C@@H]1CC[C@H](C)N1C(=O)c1ccc([C@@H](C)NC(=O)C2(NC(=O)c3cc(F)cc(C(F)(F)F)c3)CC2)c(F)c1`, the human metabolic stability entry in data set [5] is “poor”. Further, the aqueous solubility result in data set [6] is “reasonable”. In data set [7], the “pharmacokinetic profile in rat” value is “reasonable”.

As to `C[C@@H](NC(=O)C1(NC(=O)C(F)(F)F)CC1)c1ccc(-c2cccc(Cl)c2C(=O)O)cc1F` [MK-0686], the pharmacokinetic profile result in data set [8] is recorded as “suboptimal”.

`O=C(O)c1cc(NC(=O)C2(c3ccc(OC(F)(F)F)cc3F)CC2)cc(F)c1-c1cnn(C2CCC2)c1` [Example 43, 2-(1-Cyclobutyl-1H-pyrazol-4-yl)-3-fluoro-5-[({1-[2-fluoro-4-(trifluoromethoxy)phenyl]cyclopropyl}carbonyl)amino]benzoic acid]: the “Paw withdrawal threshold 4 hours post-compound” value in data set [1] (0.75 mg/kg p.o.) is recorded as 599 ± 28 gf (ns); in data set [1] (3 mg/kg p.o.), 610 ± 21 gf (ns); in data set [1] (15 mg/kg p.o.), 709 ± 18 gf (****). The IC50 in data set [2] worked out at 2.8 nM; in data set [3], 7 nM.
